Experimental data: US12233161B1, “Lipids and lipid nanoparticle formulations” (LONGUIDE BIOPHARMA CORPORATION, priority 2024, dated 2025)
Several values for one entry are separate records, joined by “and”; a condition that tells them apart may be missing. Equal values may be shown once.

Columns and labels:
[1] = Particle size and PDI of nucleic acid lipid nanoparticle preparations by dynamic light scattering; type: physicochemical
Procedure, shortened: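 LNP solution (about 0.04 mg/mL mRNA before dilution) was diluted in ultrapure water and mixed by gentle pipetting. Particle size and PDI were then measured by dynamic light scattering.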

mice [2] = experiment: In vivo delivery of FLuc-mRNA lipid nanoparticles in mice, in vivo imaging (IVIS)
Procedure, shortened: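 Mice (n=3) received about 75 μL FLuc-mRNA LNP per mouse intramuscularly (rectus femoris), intravenously (tail vein), intraperitoneally or subcutaneously (back). After injection, D-luciferin (200 μL, 15 mg/mL) was given i.p. 10-15 min before IVIS imaging.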

mice [3] = experiment: In vivo delivery of lipid nanoparticles co-loaded with FLuc-mRNA and Cy5-siRNA in mice; details: IV, 1.00:10.00:33.00:56.00, N/P 30
Description: Lipid nanoparticles loaded with nucleic acid drugs were prepared according to step 2, replacing FLuc-mRNA with a mixture of FLuc-mRNA (Hongene Biotech Corporation, Shanghai) and Cy5-siRNA. Each mouse was administered a dose of 3 μg FLuc-mRNA and 3 μg Cy5-siRNA. After a certain period of time, in vivo imaging (PerkinElmer, IVIS Lumina III) was performed. For the detection of FLuc-mRNA expression, 200 μL of a 15 mg/mL D-Luciferin working solution was injected intraperitoneally ten to fifteen minutes before imaging, followed by imaging analysis using the in vivo imaging system. 9. Investigation of the Delivery Efficacy of Lipid Nanoparticle Formulations for Compounds in Mice

[4] = Potential characterization of nucleic acid lipid nanoparticle preparations; type: physicochemical
Procedure, shortened: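 Zeta potential was read on a Malvern ZEN3700 after diluting 20 μL lipid nanoparticle solution (about 0.04 mg/mL mRNA) into 780 μL ultrapure water. Alternatively, a 27.5 μL sample in 200 μL water was first sized by dynamic light scattering, then diluted with 600 μL more water for potential measurement.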

[5] = DMG-PEG2000:DSPC:Chol:Lipid 1.00:4.00:65.00:30.00, N/P 6, mRNA LNP
[6] = DMG-PEG2000:DSPC:Chol:Lipid 2.18:17.32:60.50:20.00, N/P 30, mRNA LNP
[7] = DMG-PEG2000:DSPC:Chol:Lipid 5.00:10.00:29.00:56.00, N/P 42, mRNA LNP
[8] = DMG-PEG2000:DSPC:Chol:compound 1.00:10.00:33.00:56.00, N/P 42
[9] = DMG-PEG2000:DSPC:Chol:compound 1.00:10.00:33.00:56.00, N/P 48
[10] = LNP co-loaded with Fluc-mRNA and Cy5-siRNA, DMG-PEG2k:DSPC:Chol:L0263 1.00:10.00:33.00:56.00, N/P 30
[11] = mRNA LNP, 1.00:10.00:33.00:56.00, N/P 42
[12] = DMG-PEG2000:DSPC:Chol:Lipid 1.00:4.00:65.00:30.00, N/P 6, IV, liver
[13] = DMG-PEG2000:DSPC:Chol:Lipid 1.00:4.00:65.00:30.00, N/P 6, IV, lung
[14] = DMG-PEG2000:DSPC:Chol:Lipid 1.00:4.00:65.00:30.00, N/P 6, IV, spleen
[15] = DMG-PEG2000:DSPC:Chol:Lipid 5.00:10.00:29.00:56.00, N/P 42, IV, liver
[16] = DMG-PEG2000:DSPC:Chol:Lipid 5.00:10.00:29.00:56.00, N/P 42, IV, lung
[17] = DMG-PEG2000:DSPC:Chol:Lipid 5.00:10.00:29.00:56.00, N/P 42, IV, spleen
[18] = mRNA LNP, 1.00:10.00:33.00:56.00, N/P 42, IV, liver
[19] = mRNA LNP, 1.00:10.00:33.00:56.00, N/P 42, IV, lung
[20] = mRNA LNP, 1.00:10.00:33.00:56.00, N/P 42, IV, spleen

PDI [1, 5]: 0.12 ± 0.01
Particle size [1, 5]: 110.83 ± 1.05 nm
PDI [1, 6]: 0.11 ± 0.02
Particle size [1, 6]: 126.23 ± 1.69 nm
PDI [1, 7]: 0.12 ± 0.01
Particle size [1, 7]: 126.40 ± 2.08 nm
PDI [1, 8]: 0.13 and 0.15
Particle size (nm) [1, 8]: 86.62 nm and 139.47 nm and 118.13 nm
PDI [1, 9]: 0.13
Particle size (nm) [1, 9]: 118.33 nm
PDI [1, 10]: 0.14
Particle size (nm) [1, 10]: 95.5 nm
PDI [1, 11]: 0.14
Particle size (nm) [1, 11]: 97.48 nm
Zeta potential (mV) [4, 8]: 11.54 mV
Zeta potential (mV) [4, 9]: 16.93 mV
Zeta potential (mV) [4, 10]: 12.77 mV
Zeta potential (mV) [4, 11]: 11.97 mV
SMILES: CCCCCCCCCCCCNC(=O)C(O)CN(CCCN(C)CCCN(CC(O)C(=O)NCCCCCCCCCCCC)CC(O)C(=O)NCCCCCCCCCCCC)CC(O)C(=O)NCCCCCCCCCCCC (centres unmarked) [Compound L0263]
IVIS (mice [2]; DMG-PEG2000:DSPC:Chol:Lipid 1.00:4.00:65.00:30.00, N/P 6, IV, body): 1.07 × 10^7
% of organ targeting (mice [2]; [12]): 10.71%
IVIS (mice [2]; [12]): 1.34 × 10^6
% of organ targeting (mice [2]; [13]): 12.46%
IVIS (mice [2]; [13]): 1.55 × 10^6
% of organ targeting (mice [2]; [14]): 76.83%
IVIS (mice [2]; [14]): 9.58 × 10^6
IVIS (mice [2]; DMG-PEG2000:DSPC:Chol:Lipid 2.18:17.32:60.50:20.00, N/P 30, IM, whole body scan): 6.05 × 10^6
IVIS (mice [2]; DMG-PEG2000:DSPC:Chol:Lipid 5.00:10.00:29.00:56.00, N/P 42, IV, body): 1.83 × 10^8
% of organ targeting (mice [2]; [15]): 2.01%
IVIS (mice [2]; [15]): 4.24 × 10^6
% of organ targeting (mice [2]; [16]): 90.12%
IVIS (mice [2]; [16]): 1.90 × 10^8
% of organ targeting (mice [2]; [17]): 7.87%
IVIS (mice [2]; [17]): 1.66 × 10^7
IVIS (mice [2]; IP, organ not given, DMG-PEG2000:DSPC:Chol:compound 1.00:10.00:33.00:56.00, N/P 42, Fluc-mRNA): 5.82E+09
IVIS (mice [2]; IV, body, DMG-PEG2000:DSPC:Chol:compound 1.00:10.00:33.00:56.00, N/P 48, Fluc-mRNA): 7.08E+08
% of organ targeting (mice [2]; IV, liver, DMG-PEG2000:DSPC:Chol:compound 1.00:10.00:33.00:56.00, N/P 48): 0.44%
IVIS (mice [2]; IV, liver, DMG-PEG2000:DSPC:Chol:compound 1.00:10.00:33.00:56.00, N/P 48, Fluc-mRNA): 1.71E+07
% of organ targeting (mice [2]; IV, lung, DMG-PEG2000:DSPC:Chol:compound 1.00:10.00:33.00:56.00, N/P 48): 98.92%
IVIS (mice [2]; IV, lung, DMG-PEG2000:DSPC:Chol:compound 1.00:10.00:33.00:56.00, N/P 48, Fluc-mRNA): 3.83E+09
% of organ targeting (mice [2]; IV, spleen, DMG-PEG2000:DSPC:Chol:compound 1.00:10.00:33.00:56.00, N/P 48): 0.63%
IVIS (mice [2]; IV, spleen, DMG-PEG2000:DSPC:Chol:compound 1.00:10.00:33.00:56.00, N/P 48, Fluc-mRNA): 2.46E+07
in vivo delivery efficiency as compared to the benchmark compound SM102 (mice [2]; certain formulations, Table 2): superior in vivo delivery efficiency
tissue-targeting specificity (lung vs spleen depending on molar percentage of compound) (mice [2]; certain formulations, Table 2): strong tissue-targeting specificity
% of organ targeting (mice [2]; [18]): 0.46%
IVIS (mice [2]; [18]): 8.07E+06
% of organ targeting (mice [2]; [19]): 99.18%
IVIS (mice [2]; [19]): 1.74E+09
% of organ targeting (mice [2]; [20]): 0.36%
IVIS (mice [2]; [20]): 6.30E+06
IVIS (mice [2]; mRNA LNP, DMG-PEG2000:DSPC:Chol:lipid 1.00:10.00:33.00:56.00, N/P 42, IV, body): 2.93E+08
% of organ targeting (Fluc) (mice [3]; 10 min, Heart): 0.2%
Fluc IVIS/g Organ (mice [3]; 10 min, Heart): 9.76E+05
% of organ targeting (Fluc) (mice [3]; 10 min, Kidney): 0.1%
Fluc IVIS/g Organ (mice [3]; 10 min, Kidney): 3.33E+05
% of organ targeting (Fluc) (mice [3]; 10 min, Liver): 0.1%
Fluc IVIS/g Organ (mice [3]; 10 min, Liver): 5.97E+05
% of organ targeting (Fluc) (mice [3]; 10 min, Lung): 97.9%
Fluc IVIS/g Organ (mice [3]; 10 min, Lung): 4.98E+08
% of organ targeting (Fluc) (mice [3]; 10 min, Spleen): 1.7%
Fluc IVIS/g Organ (mice [3]; 10 min, Spleen): 8.58E+06
% of organ targeting (Fluc) (mice [3]; 20 min, Heart): 0.2%
Fluc IVIS/g Organ (mice [3]; 20 min, Heart): 3.16E+06
% of organ targeting (Fluc) (mice [3]; 20 min, Kidney): 0.0%
Fluc IVIS/g Organ (mice [3]; 20 min, Kidney): 4.37E+05
% of organ targeting (Fluc) (mice [3]; 20 min, Liver): 0.1%
Fluc IVIS/g Organ (mice [3]; 20 min, Liver): 1.27E+06
% of organ targeting (Fluc) (mice [3]; 20 min, Lung): 99.2%
Fluc IVIS/g Organ (mice [3]; 20 min, Lung): 1.98E+09
% of organ targeting (Fluc) (mice [3]; 20 min, Spleen): 0.6%
Fluc IVIS/g Organ (mice [3]; 20 min, Spleen): 1.13E+07
% of organ targeting (Fluc) (mice [3]; 1 h, Heart): 0.2%
Fluc IVIS/g Organ (mice [3]; 1 h, Heart): 6.32E+06
% of organ targeting (Fluc) (mice [3]; 1 h, Kidney): 0.0%
Fluc IVIS/g Organ (mice [3]; 1 h, Kidney): 1.67E+06
% of organ targeting (Fluc) (mice [3]; 1 h, Liver): 0.1%
Fluc IVIS/g Organ (mice [3]; 1 h, Liver): 3.51E+06
% of organ targeting (Fluc) (mice [3]; 1 h, Lung): 98.1%
Fluc IVIS/g Organ (mice [3]; 1 h, Lung): 3.70E+09
% of organ targeting (Fluc) (mice [3]; 1 h, Spleen): 1.6%
Fluc IVIS/g Organ (mice [3]; 1 h, Spleen): 5.86E+07
